The term Ki denotes the dissociation constant of the complex between target and ligand, obtained from inhibition or displacement. As usually defined, the Kd is the equilibrium constant for the complex coming apart.

The source of these data is US20100331330A1, “METHODS AND COMPOSITIONS FOR TREATING ISCHEMIC STROKE” (priority 2006, published 2010).

One data set addresses T1, PPARγ (Homo sapiens, UniProt P37231).
T1 sequence (P37231 1-505): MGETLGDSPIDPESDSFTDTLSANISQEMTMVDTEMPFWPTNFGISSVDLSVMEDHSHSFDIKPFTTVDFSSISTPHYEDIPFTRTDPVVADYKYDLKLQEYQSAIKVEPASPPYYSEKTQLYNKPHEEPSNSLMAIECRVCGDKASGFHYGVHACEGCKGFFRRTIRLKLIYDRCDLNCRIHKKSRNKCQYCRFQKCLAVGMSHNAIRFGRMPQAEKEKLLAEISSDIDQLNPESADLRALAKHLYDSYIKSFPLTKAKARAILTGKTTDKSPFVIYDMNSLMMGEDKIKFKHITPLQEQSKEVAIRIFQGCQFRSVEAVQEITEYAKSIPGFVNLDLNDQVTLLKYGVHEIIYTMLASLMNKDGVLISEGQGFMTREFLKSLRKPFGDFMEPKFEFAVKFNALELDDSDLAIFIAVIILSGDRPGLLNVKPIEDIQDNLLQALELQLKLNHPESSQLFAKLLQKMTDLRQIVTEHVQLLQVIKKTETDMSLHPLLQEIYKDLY
Particulars: cited from earlier work.

For data set [1], the system named is rodent models of cerebral ischemia. Conditions: in vivo; cited from earlier work.
Data set [2] concerns cultured cerebellar granule neurons. Particulars: cited from earlier work.
Another data set concerns rat cerebellum. Conditions: injection; bacterial lipopolysaccharide and interferon-γ; cited from earlier work.
The next data set concerns hemorrhagic stroke. Conditions: in vivo; cited from earlier work.
The subject of the next data set is ICAM mRNA. Nature of the data set: ICAM mRNA by real time PCR after MCAO. Particulars: rosiglitazone 0.1 mg/kg or pioglitazone 1 mg/kg 24 h before and at time of 2 hour MCAO; sacrificed 24 h later. The class given is in vivo, rat. A general note: Real-time PCR tracks product formation cycle by cycle.
The target in a further data set is T2, PPARγ-PPRE binding (Rattus norvegicus, UniProt O88275).
T2 construct: from tissue; host or cells: rat brain nuclear extract (ipsilateral and contralateral hemisphere after MCAO)
T2 sequence (O88275 1-505): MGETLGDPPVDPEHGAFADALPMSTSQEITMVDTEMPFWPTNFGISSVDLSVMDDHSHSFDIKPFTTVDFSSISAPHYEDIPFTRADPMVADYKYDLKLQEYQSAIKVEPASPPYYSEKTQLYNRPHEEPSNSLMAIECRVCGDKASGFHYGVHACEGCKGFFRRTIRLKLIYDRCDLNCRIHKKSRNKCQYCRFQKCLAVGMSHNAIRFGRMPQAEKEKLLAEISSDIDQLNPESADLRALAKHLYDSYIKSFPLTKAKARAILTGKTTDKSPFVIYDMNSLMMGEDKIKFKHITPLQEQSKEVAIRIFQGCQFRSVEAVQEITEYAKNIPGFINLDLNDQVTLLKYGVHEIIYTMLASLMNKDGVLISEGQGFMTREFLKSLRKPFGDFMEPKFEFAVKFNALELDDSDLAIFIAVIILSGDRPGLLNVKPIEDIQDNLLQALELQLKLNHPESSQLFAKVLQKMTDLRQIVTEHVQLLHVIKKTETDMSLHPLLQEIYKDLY
T2 sequence (Q05343 1-467 partner): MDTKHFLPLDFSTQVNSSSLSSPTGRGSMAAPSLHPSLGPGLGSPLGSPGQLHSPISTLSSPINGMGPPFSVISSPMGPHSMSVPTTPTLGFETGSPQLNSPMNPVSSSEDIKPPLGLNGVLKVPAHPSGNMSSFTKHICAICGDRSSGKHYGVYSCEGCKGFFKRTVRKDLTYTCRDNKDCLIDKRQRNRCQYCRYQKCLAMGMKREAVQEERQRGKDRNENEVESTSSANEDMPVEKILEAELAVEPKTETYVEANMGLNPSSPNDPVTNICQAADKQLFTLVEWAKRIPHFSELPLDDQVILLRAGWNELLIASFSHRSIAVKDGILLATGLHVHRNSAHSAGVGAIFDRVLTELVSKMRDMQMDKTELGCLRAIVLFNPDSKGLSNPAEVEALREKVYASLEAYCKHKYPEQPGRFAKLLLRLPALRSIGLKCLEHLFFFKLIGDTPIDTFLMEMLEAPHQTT
The data set is described as follows: Electrophoretic mobility shift assay of PPARγ DNA (PPRE) binding in brain nuclear extract. It is filed as in vivo. Conditions: both ipsilateral and contralateral hemispheres, 0.1 mg/kg 24 h before and at time of 2 hour MCAO. The protocol:
Eight hours after the onset of MCAO the animals were euthanized by halothane inhalation and the brains quickly removed. Blocks of tissue 4 mm thick encompassing the rostral caudal extension of the infarct and the same area on the contralateral hemisphere were dissected free and snap frozen in liquid nitrogen. Nuclear extraction was performed and protein concentrations were determined using the Bradford method.
Ten micrograms of nuclear extract protein was incubated with 32P-labeled double stranded oligonucleotide (40 fmol) containing the PPAR responsive element sequences in rat acyl CoA oxidase promoter (5′-[…]-3′) (SEQ ID NO: 5). For competition assays, 100 fold radioinert (cold) competitor oligonucleotides were included in the reaction mixture. Interference assays with antibody to PPARγ (2 μg/reaction; SC-7273x, Santa Cruz Biotechnology,) were used to determine specificity of PPARγ-PPRE binding.
Nucleoprotein-oligonucleotide complexes were resolved electrophoretically on a 7% non-denaturing polyacrylamide gel. The gel was autoradiographed and optical density was assessed using Kodak Analysis (EDAS) 290 system.
In general terms: A gel shift assay detects complexes by their altered migration in electrophoresis.

For the next data set, the system named is LPL mRNA. The data set is described as follows: Lipoprotein lipase (LPL) mRNA by real time PCR after MCAO. The class given is in vivo, rat. Particulars: rosiglitazone 0.1 mg/kg, pioglitazone 1.0 mg/kg; 24 h before and at time of 2 hour MCAO; tissue 24 h later. From the text:
At the time of sacrifice the animal was placed in an anesthesia chamber and exposed to 5% halothane, 30% oxygen, 65% nitrous oxide until it ceased breathing. The rat was the, processed for either histologic and immunocytochemical analysis or decapitated and the brain immediately dissected for mRNA isolation. Animals used for immunohistochemistry underwent intracardiac perfusion; the thoracic cavity was opened, a blunt needle placed through the left ventricle into the aorta and the right atrium cut. Animals were perfused through the heart, first with 0.1 M phosphate buffer and then with 4% paraformaldehyde (pH 7.4). The brain was removed from the rat and immersion fixed in 4% paraformaldehyde for an additional hour. Tissue was then transferred to 30% sucrose in phosphate buffer in order to cyroprotect it. Brains were mounted in OCT sectioning medium and frozen sections cut at either twenty microns (for infarct volume determination) or ten microns (for immunocytochemistry). Animals used in real time PCR experiments were decapitated after euthanasia and the brain quickly removed.
A 2 mm thick coronal slice of tissue through the area of maximal infarction was quickly homogenized in Trizol (Gibco BRL, Rockville, Md.). […] RNA was isolated using Life Technologies Protocol (Rockville, Md.), and cDNA synthesized from 1.5 μg of total RNA. […]

Data set [3] in a line: Physiologic parameters and cerebral blood perfusion monitoring during MCAO. The class given is in vivo, rat. Particulars: during MCAO surgery. The procedure: MCAO was performed as previously described. […] The rats were then allowed to recover from anesthesia.
Male Wistar rats were anesthetized with halothane. Cerebral blood perfusion was monitored during surgery and reperfusion including the time of occlusion and the time of reperfusion. A small craniotomy was made midway between the corner of the eye and the external auditory canal. A laser Doppler probe (Perimed AB, Järfälla, Sweden) was placed such that its beam passed through the craniotomy and cerebral blood perfusion measured. Once the baseline measurement was obtained, MCAO was performed. Cerebral blood perfusion was monitored at the time of MCAO and at the time of reperfusion. There were no significant differences in cerebral blood flow reductions during MCAO for any of the treatment groups. Following completion of MCAO, animals were allowed to recover and returned to their cages.

The subject of data set [4] is rats subjected to middle cerebral artery occlusion (MCAO). Conditions: 90 minute MCAO. From the text:
Male Wistar rats, 250-350 g, were obtained from Charles River (Wilmington, Mass.). Animals were housed and cared for in the Animal Resource Center and allowed free access to food and water before and after surgery. All procedures were approved by the Institutional Animal Care and Use Committee of Case Western Reserve University.
A 4.0 nylon suture with a flame rounded tip was advanced through the internal carotid artery to occlude the MCA while cerebral blood flow was monitored using laser doppler (Perimed AB, Jarfalla, Sweden). At the time of reperfusion rats were again anesthetized and the suture removed with cerebral blood flow monitoring to ensure reperfusion. Arterial blood pressure, arterial blood gases and temperature were all monitored and controlled during the length of the procedure.
Control animals were injected with 0.1 ml DMSO.
Rats were euthanized by exposure to 5% halothane until breathing ceased. They then underwent intracardiac perfusion first with PBS and then with 4% paraformaldehyde. Brains were isolated and immersion fixed in 4% paraformaldehyde overnight. Tissue was cryoprotected in 30% sucrose in PBS. Twenty micron frozen sections were collected every […] beginning at the level of the forceps minor corpus callosum and extending through the hippocampus. Sections were stained with Thionin and the area of infarction measured using Bioquant computer software (R&M Biometrics, Nashville, Tenn.) by subtracting the uninfarcted tissue in the ischemic hemisphere from the volume of the contralateral hemisphere. This method corrects for post-ischemic edema.
Male Wistar rats, 250-350 g, were obtained from Charles River (Wilmington, Mass.). […] Animals were housed and cared for in the Animal Resource Center and allowed free access to food and water before and after surgery. […] The tail artery was exposed and cannulated to measure mean arterial blood pressure and to obtain blood for blood gas measurements during surgery. Animals in which normal temperature, blood pressure and gases could not be maintained were excluded from the study. MCAO was performed as previously described. Briefly, the bifurcation of the common carotid artery was exposed. The external carotid artery was isolated and a suture placed 0.5 cm from the bifurcation. Following electrocoagulation distal to the suture the external carotid was cut between the suture and the electrocoagulated segment. A suture was applied to the common carotid artery such that it could be removed later. A loop of suture was then placed under the internal carotid artery and the artery elevated to transiently occlude blood flow. A small nick was made in the wall of the external carotid artery. Through this nick a 22 mm length of 4.0 Ethicon suture, its tip rounded by heating near a flame, was gently threaded from the external to the internal carotid artery lumen to a distance of 18 mm from the bifurcation of the carotid. The thread was held in place with a suture around the stump of the external carotid artery and the suture around the internal carotid artery released. The catheter was removed from the tail artery and both incisions were closed. The rats were then allowed to recover from anesthesia. […] The neck incision was reopened and the 4.0 Ethicon suture removed. The suture that held it in place was tightened and the suture around the common carotid artery was removed. After confirmation of reperfusion by visual inspection, the incision was closed and the animal allowed to recover.
Twenty micron frozen sections of paraformaldehyde fixed brains were collected every 1000 μm beginning at the level of the forceps minor corpus callosum and extending through the hippocampus. The slides were stained with Thionin. The sections were then trans-illuminated and the image transmitted to a computer screen.

In the case of Nitrolinoleic acid, the Ki on PPARγ was greater than 1000 nM.
Take `Cc1c(C)c2c(c(C)c1O)CCC(C)(COc1ccc(CC3SC(=O)NC3=O)cc1)O2` (single isomer, unassigned; (+)) [troglitazone, (+)-5[[4-[(3,4-dihydro-6-hydroxy-2,5,7,8-tetramethyl-2H-1-benzopyran-2-yl)methoxy]phenyl]methyl]-2,4thiazolidinedione]: the “neuroprotection in rodent models of cerebral ischemia” value in data set [1] is on record as “effective neuroprotective agents”. In data set [2], the “cell death following glutamate exposure” value is listed as “reduces cell death” and the low-potassium-induced apoptosis entry is recorded as “suppresses low-potassium-induced apoptosis”. The “cell death in rat cerebellum” value with rat cerebellum is “reduces cell death”.
Consider `CCCCC/C=C/C=C1/C(=O)C=C[C@@H]1C/C=C\CCCC(=O)O` [15-deoxy-D12,14-prostaglandin J2], for which the “concentrations at which it binds PPARγ” value on PPARγ was 2 to 5 µM. Further, in the data set on rat cerebellum, the “cell death in rat cerebellum” value was “reduces cell death”.
Take `CC(C)Cc1ccc(C(C)C(=O)O)cc1` (centres unmarked) [ibuprofen]: the “cell death in rat cerebellum” value in the data set on rat cerebellum is listed as “reduces cell death”.
For the compound `CCCCC[C@H](O)/C=C/[C@H]1C(=O)C=C[C@@H]1C/C=C\CCCC(=O)O` [prostaglandin J2], in the data set on hemorrhagic stroke, the “benefit in hemorrhagic stroke” value is on record as “beneficial in hemorrhagic stroke”.
In the case of `CCCCCCCCCCCCCCCCOC[C@H](COP(=O)([O-])OCC[N+](C)(C)C)OC(=O)CCCCCCCC(=O)O` [hexadecyl azelaoyl phosphatidyicholine], at PPARγ, the Kd is roughly 40 nM.
`CN(CCOc1ccc(CC2SC(=O)NC2=O)cc1)c1ccccn1` (centres unmarked) [rosiglitazone, 5-[4-[2-(N-methyl-N-(2-pyridyl)amino]ethoxy]benzyl]thiazolidine-2,4-dione]: the “ICAM mRNA compared with vehicle treated rats” value with ICAM mRNA is recorded as “significant reduction in ICAM mRNA”. The “PPARγ-PPRE binding (densitometry), in words” value was “significantly increase PPARγ-PPRE binding” on PPARγ-PPRE binding; “increased DNA binding in both the ischemic and the non-ischemic hemispheres” at PPARγ-PPRE binding (listed as Rosiglitazone). The “increase in LPL mRNA levels within the ischemic hemisphere” value in the data set with LPL mRNA was found to be 254%. Besides, in data set [3], the “physiologic parameters (temperature, arterial blood gases, blood pressure, cerebral blood flow) versus vehicle” value was “no differences in physiologic parameters”.
The compound `O=C(Nc1ccncc1)c1cc([N+](=O)[O-])ccc1Cl` [T0070907] returned a mean absolute infarction volume in data set [4] (T0070907 24 h before and at time of MCAO) of 176 mm³. Also, the animals that died entry in data set [4] (panel B) is recorded as “one animal”.
